Data from patent publication US20230099344A1, “COMPOUNDS AND METHODS FOR THE TARGETED DEGRADATION OF IRAK-4” (Arvinas Operations, Inc., priority 2021, published 2023).

Each compound was assayed against T1, IRAK-4 (Homo sapiens, UniProt Q9NWZ3) (assay: IRAK-4 ELISA, PBMC degradation). Conditions: treated overnight.
T1 sequence (Q9NWZ3 1-460): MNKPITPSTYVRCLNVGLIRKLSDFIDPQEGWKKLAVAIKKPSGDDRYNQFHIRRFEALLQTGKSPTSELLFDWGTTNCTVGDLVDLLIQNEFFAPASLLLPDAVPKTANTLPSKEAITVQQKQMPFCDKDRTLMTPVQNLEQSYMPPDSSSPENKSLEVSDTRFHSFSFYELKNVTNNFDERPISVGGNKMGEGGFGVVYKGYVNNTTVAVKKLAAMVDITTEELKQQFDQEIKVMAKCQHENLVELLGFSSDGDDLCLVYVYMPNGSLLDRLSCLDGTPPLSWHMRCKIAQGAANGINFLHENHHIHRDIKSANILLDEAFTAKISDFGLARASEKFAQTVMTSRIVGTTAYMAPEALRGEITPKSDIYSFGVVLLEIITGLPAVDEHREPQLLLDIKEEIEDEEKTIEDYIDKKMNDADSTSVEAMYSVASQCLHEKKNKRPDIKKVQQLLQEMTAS
Type: cell-based
Parameters: endogenous in cells; host or cells: PBMC
Method in brief: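 IRAK-4 levels measured by matched-antibody-pair ELISA on lysates after overnight compound exposure. Cells seeded same day: PBMC at 2×10^6/ml, OCI-Ly10 at 1×10^6/ml.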

Row | Compound | DC50 | Dmax | PBMC DC90 | PBMC Dmax
1 | CC(C)Oc1cc2nn(C3CCN(CC4(F)CN(c5ccc6c(c5)C(=O)N(C5CCC(=O)NC5=O)C6=O)C4)CC3)cc2cc1NC(=O)c1cnn2ccc(N3C[C@H]4C[C@@H]3CO4)nc12 (stereo partly drawn) [Example 191] | 5 to 10 nM | 80 to 90% | D (D represents a DC90 value ≥50 nM) | –
2 | O=C1CCC(N2C(=O)c3ccc(N4CC(F)(CN5CCC(n6cc7cc(NC(=O)c8cnn9cccnc89)c(OCC(F)F)cc7n6)CC5)C4)cc3C2=O)C(=O)N1 (stereo not drawn) [Example 232] | 1 to 5 nM | – | C (C represents a DC90 value ≥25.0 nM and <50 nM) | B (B represents a Dmax value ≥80 and <90)
3 | O=C1CCC(N2C(=O)c3cccc(N4CC(F)(CN5CCC(n6cc7cc(NC(=O)c8cnn9cccnc89)c(OCC8CC8)cc7n6)CC5)C4)c3C2=O)C(=O)N1 (stereo not drawn) [Example 270, N-(6-(cyclopropylmethoxy)-2-(1-((1-(2-(2,6-dioxopiperidin-3-yl)-1,3-dioxoisoindolin-4-yl)-3-fluoroazetidin-3-yl)methyl)piperidin-4-yl)-2H-indazol-5-yl)pyrazolo[1,5-a]pyrimidine-3-carboxamide] | ≥ 10 nM | < 70% | D (D represents a DC90 value ≥50 nM) | –
4 | O=C1CCC(N2C(=O)c3ccc(N4CC(F)(CN5CCC([C@H](F)CN6Cc7cc(NC(=O)c8cnn9cccnc89)c(N8CCOCC8)cc7C6=O)CC5)C4)cc3C2=O)C(=O)N1 (stereo partly drawn) [Example 413] | 1 to 5 nM | 80 to 90% | B (B represents a DC90 value ≥10.0 nM and <25.0 nM) | –
5 | CCN(C1CCC(n2cc3cc(NC(=O)c4cnn5cccnc45)c(OCC4CC4)cc3n2)CC1)C1CN(c2ccc3c(c2)C(=O)N(C2CCC(=O)NC2=O)C3=O)C1 (stereo not drawn) [Example 325] | 1 to 5 nM | ≥ 90% | C (C represents a DC90 value ≥25.0 nM and <50 nM) | –
6 | CC(C)Oc1cc2c(cc1NC(=O)c1cnn3cccnc13)CN(C1CCN(C[C@@H]3CCCN(c4ccc5c(c4)C(=O)N(C4CCC(=O)NC4=O)C5=O)C3)CC1)C2=O (stereo partly drawn) [Example 77] | 1 to 5 nM | ≥ 90% | B (B represents a DC90 value ≥10.0 nM and <25.0 nM) | –
7 | CC(C)Oc1nc2nn(C3CCN(CC4(F)CN(c5ccc6c(c5)CN(C5CCC(=O)NC5=O)C6=O)C4)CC3)cc2cc1NC(=O)c1cnn2cccnc12 (stereo not drawn) [Example 416, N-[2-[1-[[1-[2-(2,6-dioxo-3-piperidyl)-1-oxo-isoindolin-5-yl]-3-fluoro-azetidin-3-yl]methyl]-4-piperidyl]-6-isopropoxy-pyrazolo[3,4-b]pyridin-5-yl]pyrazolo[1,5-a]pyrimidine-3-carboxamide] | < 1 nM | 80 to 90% | A (A represents a DC90 value <10.0 nM) | –
8 | CC(C)Oc1cc2c(cc1NC(=O)c1cnn3cccnc13)CN(C1CCN(C[C@H]3CCN(c4ccc5c(c4)C(=O)N(C4CCC(=O)NC4=O)C5=O)C3)CC1)C2=O (stereo partly drawn) [Example 83] | 1 to 5 nM | ≥ 90% | A (A represents a DC90 value <10.0 nM) | –
9 | O=C1CCC(N2C(=O)c3ccc(N4CC(F)(CN5CCC(N6Cc7cc(NC(=O)c8cnn9cccnc89)c(OC8CCC8)cc7C6=O)CC5)C4)cc3C2=O)C(=O)N1 (stereo not drawn) [Example 215] | 1 to 5 nM | 70 to 80% | A (A represents a DC90 value <10.0 nM) | –
10 | CC(C)Oc1cc2c(cc1NC(=O)c1cnn3cccnc13)CN(C1CCN(CC3CN(c4ccc(C(=O)NC5CCC(=O)NC5=O)c(F)c4)C3)CC1)C2=O (stereo not drawn) [Example 292] | < 1 nM | ≥ 90% | A (A represents a DC90 value <10.0 nM) | –
11 | COc1cc(N2CCC(CN3CCC(n4cc5cc(NC(=O)c6cnn7cccnc67)c(OCC6CC6)cc5n4)CC3)CC2)cc2c1C(=O)N(C1CCC(=O)NC1=O)C2 (stereo not drawn) [Example 132] | < 1 nM | ≥ 90% | A (A represents a DC90 value <10.0 nM) | –
12 | CC(C)Oc1cc2nn(C3CCN(CC4(F)CN(c5ccc6c(n5)C(=O)N(C5CCC(=O)NC5=O)C6=O)C4)CC3)cc2cc1NC(=O)c1cnn2cccnc12 (stereo not drawn) [Example 411, N-(2-(1-((1-(6-(2,6-dioxopiperidin-3-yl)-5,7-dioxo-6,7-dihydro-5H-pyrrolo[3,4-b]pyridin-2-yl)-3-fluoroazetidin-3-yl)methyl)piperidin-4-yl)-6-isopropoxy-2H-indazol-5-yl)pyrazolo[1,5-a]pyrimidine-3-carboxamide] | 5 to 10 nM | 80 to 90% | D (D represents a DC90 value ≥50 nM) | –
13 | C[C@@H](Oc1cc2nn(C3CCN(CC4(F)CN(c5ccc6c(c5)C(=O)N(C5CCC(=O)NC5=O)C6=O)C4)CC3)cc2cc1NC(=O)c1cnn2cccnc12)C1CC1 (stereo partly drawn) [Example 223] | 1 to 5 nM | 70 to 80% | C (C represents a DC90 value ≥25.0 nM and <50 nM) | –

Further lines, with some results ahead:

Row | DC50 | Dmax | PBMC DC90 | Compound | PBMC Dmax
14 | < 1 nM | ≥ 90% | A (A represents a DC90 value <10.0 nM) | O=C1CCC(N2Cc3cc(N4CCC(CN5CCC(N6Cc7cc(NC(=O)c8cnn9cccnc89)c(OC8CC8)cc7C6=O)CC5)CC4)ccc3C2=O)C(=O)N1 (stereo not drawn) [Example 28] | –
15 | < 1 nM | ≥ 90% | A (A represents a DC90 value <10.0 nM) | CC(C)Oc1cc2c(cc1NC(=O)c1cnn3cccnc13)CN(C[C@@H](F)C1CCN(CC3CCN(c4ccc5c(c4)CN(C4CCC(=O)NC4=O)C5=O)CC3)CC1)C2=O (stereo partly drawn) [Example 20] | –
16 | < 1 nM | ≥ 90% | A (A represents a DC90 value <10.0 nM) | CC(C)Oc1cc2c(cc1NC(=O)c1cnn3cccnc13)CN(C1CCN(CC3(O)CN(c4ccc5c(c4)C(=O)N(C4CCC(=O)NC4=O)C5=O)C3)CC1)C2=O (stereo not drawn) [Example 61] | –
17 | < 1 nM | ≥ 90% | A (A represents a DC90 value <10.0 nM) | CC(C)Oc1cc2c(cc1NC(=O)c1cnn3cccnc13)CN(C1CCN(CC3(F)CN(c4cccc5c4n(C)c(=O)n5C4CCC(=O)NC4=O)C3)CC1)C2=O (stereo not drawn) [Example 385] | –
18 | < 1 nM | 80 to 90% | A (A represents a DC90 value <10.0 nM) | CC(C)Oc1cc2c(cc1NC(=O)c1cnn3cccnc13)CN(C1CCN(CC3(C)CN(c4ccc5c(c4)C(=O)N(C4CCC(=O)NC4=O)C5=O)C3)CC1)C2=O (stereo not drawn) [Example 72] | –
19 | < 1 nM | 80 to 90% | A (A represents a DC90 value <10.0 nM) | CC(C)Oc1cc2nn(C3CCN(CCC4(F)CN(c5ccc6c(c5)C(=O)N(C5CCC(=O)NC5=O)C6=O)C4)CC3)cc2cc1NC(=O)c1cnn2cccnc12 (stereo not drawn) [Example 139] | –
20 | < 1 nM | ≥ 90% | A (A represents a DC90 value <10.0 nM) | COc1cc(N2CC(CN3CCC(N4Cc5cc(NC(=O)c6cnn7cccnc67)c(OC(C)C)cc5C4=O)CC3)C2)cc2c1C(=O)N(C1CCC(=O)NC1=O)C2 (stereo not drawn) [Example 21] | –
21 | < 1 nM | – | A (A represents a DC90 value <10.0 nM) | CC(C)Oc1cc2c(cc1NC(=O)c1cnn3cccnc13)CN([C@H]1CC[C@H](N3CC4(CN(c5ccc6c(c5)C(=O)N(C5CCC(=O)NC5=O)C6=O)C4)C3)CC1)C2=O (stereo partly drawn) [Example 68] | A (A represents a Dmax value ≥90)
